We go through 30 compounds from patent US20240279215A1 (Cytokinetics, Incorporated, priority 2022, published 2024).

The structures appear in SMILES notation.

Broadly, the EC50 is the concentration that produces a half-maximal response.

The assay deals with human NAMPT (Homo sapiens (Human), UniProt P43490). The experiment in a line: NMN fluorescence biochemical assay (human recombinant NAMPT enzyme assay). The procedure:
Compounds described herein were assayed for their ability to stimulate the synthesis of nicotinamide mononucleotide (NMN) by the enzyme NAMPT. The human recombinant enzyme assay measures the activation of the enzyme activity by compounds using recombinant enzyme and substrates in a buffered cell-free system. The assay conditions closely mimic cellular environments. Dose responses were measured using an assay to detect the formation of nicotinamide mono-nucleotide. All experiments were performed in the 384-well format. Generally, 0.5 μL of DMSO containing varying concentrations of the test compound was mixed with 10 μL of the enzyme reagent solution. Enzyme reactions were initiated with the addition of […] containing the substrates. The final assay conditions were as follows: 6 nM human NAMPT, 2.5 mM ATP, 20 μM PRPP and 150 μM nicotinamide in 50 mM HEPES, pH 7.2, 1 mM DTT, 1 mM CHAPS 50 mM NaCl, 100 mM MgCl2. Following an incubation of 60 min at ambient temperature, 10 μL of 20% acetophenone in DMSO was added, followed by 10 μL of 2 M KOH and 40 μL of formic acid. The plates were read for fluorescence (Excitation/Emission=355 nm/460 nm) using an EnVision plate reader after 40 mins of incubation at ambient temperature.

Chain of human NAMPT (P43490 whole entry): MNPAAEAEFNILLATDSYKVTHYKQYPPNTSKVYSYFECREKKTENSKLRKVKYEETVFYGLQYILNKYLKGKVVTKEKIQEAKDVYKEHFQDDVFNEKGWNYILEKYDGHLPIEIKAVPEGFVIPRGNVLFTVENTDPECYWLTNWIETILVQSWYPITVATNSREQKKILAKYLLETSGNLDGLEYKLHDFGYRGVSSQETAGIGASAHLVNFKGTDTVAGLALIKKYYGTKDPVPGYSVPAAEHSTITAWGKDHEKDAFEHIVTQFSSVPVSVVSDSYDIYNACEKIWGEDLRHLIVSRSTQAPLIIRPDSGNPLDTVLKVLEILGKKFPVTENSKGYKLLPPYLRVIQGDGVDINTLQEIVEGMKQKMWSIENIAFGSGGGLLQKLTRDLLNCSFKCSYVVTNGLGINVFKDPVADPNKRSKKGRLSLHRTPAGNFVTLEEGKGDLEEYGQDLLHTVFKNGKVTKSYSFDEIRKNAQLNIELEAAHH

For the compound `O=C(Cc1ccc(NC(=O)OCc2ccc(Cl)cc2)cc1)N[C@H]1CC[C@H](OC(F)F)CC1` [Compound 221, (4-chlorophenyl)methyl N-[4-({[(1r,4r)-4-(difluoromethoxy)cyclohexyl]carbamoyl}methyl)phenyl]carbamate], the “AC1.4 Human” value came to 2.04 µM and the EC50 stood at 2.16 µM.

In the case of `CN(Cc1ccc(NC(=O)OCc2ccc(Cl)cc2)cc1)C(=O)c1ccncc1F` [Compound 36, (4-chlorophenyl)methyl N-(4-{[1-(3-fluoropyridin-4-yl)-N-methylformamido]methyl}phenyl)carbamate], the “AC1.4 Human” value came to 0.40 µM and the half-maximal effective concentration (EC50) came to 1 µM.

Take `CN1CCN(C(=O)Cc2ccc(NC(=O)OCc3ccc(Cl)cc3)cc2)CC1=O` [Compound 332, (4-chlorophenyl)methyl N-{4-[2-(4-methyl-3-oxopiperazin-1-yl)-2-oxoethyl]phenyl}carbamate]: the “AC1.4 Human” value stood at 8.89 µM and the EC50 is 50.6 µM.

As to `O=C(Nc1ccc(CC2CCN(C(=O)C3CCC3)CC2)cc1)OCc1ccc(Cl)cc1` [Compound 102, 4-chlorobenzyl (4-((1-(cyclobutanecarbonyl)piperidin-4-yl)methyl)phenyl)carbamate], the “AC1.4 Human” value worked out at 0.82 µM and the EC50 came out at 1.89 µM.

As for `O=C(Cc1ccc(NC(=O)OCc2ccc(Cl)cc2)cc1)NC1CCOCC1` [Compound 308, (4-chlorophenyl)methyl N-(4-{[(oxan-4-yl)carbamoyl]methyl}phenyl)carbamate], the “AC1.4 Human” value worked out at 5.08 µM and the 50% effective concentration (EC50) was 8.69 µM.

For the compound `Cc1ccc(CNC(=O)Cc2ccc(NC(=O)OCc3ccc(Cl)cc3)cc2)cn1` [Compound 323, (4-chlorophenyl)methyl N-[4-({[(6-methylpyridin-3-yl)methyl]carbamoyl}methyl)phenyl]carbamate], the “AC1.4 Human” value is 7.41 µM and the 50% effective concentration (EC50) stood at 13.3 µM.

As for `CN(Cc1ccc(NC(=O)OCc2ccc(Cl)cc2)cc1)C(=O)N1CCC1` [Compound 112, 4-chlorobenzyl (4-((N-methylazetidine-1-carboxamido)methyl)phenyl)carbamate], the “AC1.4 Human” value is 0.93 µM and the half-maximal effective concentration (EC50) was 5.53 µM.

In the case of `O=C(Nc1ccc(CC2C3CCC2CNC3)cc1)OCc1cnco1` (stereo not drawn) [Compound 426, oxazol-5-ylmethyl (4-((3-azabicyclo[3.2.1]octan-8-yl)methyl)phenyl)carbamate], the “AC1.4 Human” value turned out to be 1.62 µM and the EC50 worked out at 32.4 µM.

`COc1ccc(COC(=O)Nc2ccc(CC3CCN(C4COC4)CC3)cc2)cc1` [Compound 67, 4-methoxybenzyl (4-((1-(oxetan-3-yl)piperidin-4-yl)methyl)phenyl)carbamate]: the “AC1.4 Human” value is 0.59 µM and the 50% effective concentration (EC50) is 21.3 µM.

On to `C[C@@H](c1ccc(NC(=O)OCc2ccc(Cl)cc2)cc1)N(C)C(=O)N1CCC1` [Compound 89, 4-chlorobenzyl (S)-(4-(1-(N-methylazetidine-1-carboxamido)ethyl)phenyl)carbamate], for which the “AC1.4 Human” value was determined as 0.71 µM and the EC50 was 9.4 µM.

For the compound `COC(=O)N1C2CCC1CC(Cc1ccc(NC(=O)OCc3cnco3)cc1)C2` (stereo not drawn) [Compound 407, methyl 3-(4-(((oxazol-5-ylmethoxy)carbonyl)amino)benzyl)-8-azabicyclo[3.2.1]octane-8-carboxylate], the “AC1.4 Human” value worked out at 0.26 µM and the 50% effective concentration (EC50) came to 8.55 µM.

Consider `O=C(Nc1ccc(CN2CCOCC2=O)cc1)OCc1ccc(Cl)cc1` [Compound 86, (4-chlorophenyl)methyl N-{4-[(3-oxomorpholin-4-yl)methyl]phenyl}carbamate], for which the “AC1.4 Human” value amounted to 0.68 µM and the EC50 was found to be 6.21 µM.

For `COc1cc(C(=O)N[C@@H](C)c2ccc(NC(=O)OCc3ccc(Cl)cc3)cc2)cnc1C` [Compound 110, (4-chlorophenyl)methyl N-{4-[(1S)-1-[(5-methoxy-6-methylpyridin-3-yl)formamido]ethyl]phenyl}carbamate], the “AC1.4 Human” value came out at 0.91 µM and the EC50 amounted to 3.46 µM.

On to `COc1ccc(COC(=O)Nc2ccc(CN3CCN(C)C(=O)C3)cc2)cc1` [Compound 325, (4-methoxyphenyl)methyl N-{4-[(4-methyl-3-oxopiperazin-1-yl)methyl]phenyl}carbamate], for which the “AC1.4 Human” value was determined as 7.87 µM and the EC50 amounted to 51.1 µM.

Take `C[C@H](NC(=O)c1ccc(F)cc1)c1ccc(NC(=O)OCc2cnco2)cc1` [Compound 39, 1,3-oxazol-5-ylmethyl N-{4-[(1S)-1-[(4-fluorophenyl)formamido]ethyl]phenyl}carbamate]: the “AC1.4 Human” value was determined as 0.43 µM and the EC50 is 19.2 µM.

`Cn1ccc(CC(=O)NCc2ccc(NC(=O)OCc3ccc(Cl)cc3)cc2)n1` [Compound 295, (4-chlorophenyl)methyl N-(4-{[2-(1-methylpyrazol-3-yl)acetamido]methyl}phenyl)carbamate]: the “AC1.4 Human” value worked out at 4.57 µM and the EC50 stood at 28 µM.

Consider `CS(=O)(=O)N1CCC(Cc2ccc(NC(=O)OCc3cnco3)cc2)CC1` [Compound 18, oxazol-5-ylmethyl (4-((1-(methylsulfonyl)piperidin-4-yl)methyl)phenyl)carbamate], for which the “AC1.4 Human” value is 0.25 µM and the concentration for a half-maximal effect (EC50) worked out at 16.2 µM.

For `COc1cc(C(=O)N[C@@H](C)c2ccc(NC(=O)OCc3ccc(Cl)cc3)cc2)n(C)n1` [Compound 95, (4-chlorophenyl)methyl N-(4-[(1S)-1-[(5-methoxy-2-methylpyrazol-3-yl)formamido]ethyl]phenyl}carbamate], the “AC1.4 Human” value is 0.75 µM and the EC50 is 3.11 µM.

Turning to `CC(C)C(=O)N1CCC2(CC(c3ccc(NC(=O)OCc4cnco4)cc3F)C2)C1` (single isomer, unassigned) [Compound 361], the “AC1.4 Human” value came out at 0.08 µM and the EC50 came out at 10.8 µM.

On to `C[C@H](NC(=O)Cc1ncco1)c1ccc(NC(=O)OCc2ccc(Cl)cc2)cc1` [Compound 224, 4-chlorobenzyl (S)-(4-(1-(2-(oxazol-2-yl)acetamido)ethyl)phenyl)carbamate], for which the “AC1.4 Human” value was determined as 2.08 µM and the EC50 was 10.1 µM.

In the case of `Cc1coc(C(=O)N[C@@H](C)c2ccc(NC(=O)OCc3ccc(Cl)cc3)cc2)n1` [Compound 243, 4-chlorobenzyl (S)-(4-(1-(4-methyloxazole-2-carboxamido)ethyl)phenyl)carbamate], the “AC1.4 Human” value turned out to be 2.38 µM and the concentration giving a half-maximal response (EC50) came out at 26.3 µM.

As for `CCc1ncoc1C(=O)N[C@@H](C)c1ccc(NC(=O)OCc2ccc(Cl)cc2)cc1` [Compound 260, (4-chlorophenyl)methyl N-{4-[(1S)-1-[(4-ethyl-1,3-oxazol-5-yl)formamido]ethyl]phenyl}carbamate], the “AC1.4 Human” value came to 2.77 µM and the EC50 was found to be 14.5 µM.

Take `COc1ccc(COC(=O)Nc2ccc(NS(=O)(=O)Cc3ccccc3)cc2)cc1` [Compound 61, 4-methoxybenzyl (4-((phenylmethyl)sulfonamido)phenyl)carbamate]: the “AC1.4 Human” value stood at 0.57 µM and the EC50 worked out at 2.62 µM.

For `O=C(Nc1ccc(CNC(=O)c2c(F)cncc2F)cc1)OCc1ccc(Cl)cc1` [Compound 147, (4-chlorophenyl)methyl N-(4-{[15.2 (3,5-difluoropyridin-4-yl)formamido]methyl}phenyl)carbamate], the “AC1.4 Human” value amounted to 1.22 µM and the EC50 stood at 5.21 µM.

Regarding `Cn1ccc(C(=O)NCc2ccc(NC(=O)OCc3ccc(Cl)cc3)cc2)n1` [Compound 255, (4-chlorophenyl)methyl N-(4-{[(1-methylpyrazol-3-yl)formamido]methyl}phenyl)carbamate], the “AC1.4 Human” value came to 2.65 µM and the concentration giving a half-maximal response (EC50) is 31.7 µM.

As for `COC(=O)N1CCC(Cc2ccc(NC(=O)OCc3cnco3)cc2)C2CC21` (stereo not drawn) [Compound 456, methyl 5-(4-(((oxazol-5-ylmethoxy)carbonyl)amino)benzyl)-2-azabicyclo[4.1.0]heptane-2-carboxylate], the “AC1.4 Human” value is 0.23 µM and the EC50 came to 17.8 µM.

With `O=C(Nc1ccc(CNC(=O)c2ccnn2C2CCC2)cc1)OCc1ccc(Cl)cc1` [Compound 327, (4-chlorophenyl)methyl N-(4-{[(2-cyclobutylpyrazol-3-yl)formamido]methyl}phenyl)carbamate], the “AC1.4 Human” value amounted to 8.21 µM and the EC50 was determined as 21.1 µM.

On to `CCC(=O)N1CCC2(CC(Cc3ccc(NC(=O)OCc4cnco4)cc3F)C2)C1` (stereo not drawn) [Compound 367, oxazol-5-ylmethyl (3-fluoro-4-((6-propionyl-6-azaspiro[3.4]octan-2-yl)methyl)phenyl)carbamate], for which the “AC1.4 Human” value is 0.07 µM and the concentration giving a half-maximal response (EC50) was 4.77 µM.

As for `Cn1nc(C(F)F)cc1C(=O)NCc1ccc(NC(=O)OCc2ccc(Cl)cc2)cc1` [Compound 345, (4-chlorophenyl)methyl N-[4-({[5-(difluoromethyl)-2-methylpyrazol-3-yl]formamido}methyl)phenyl]carbamate], the “AC1.4 Human” value was found to be 13.49 µM and the EC50 stood at 20.3 µM.

For the compound `CC(C)c1ccc(C(=O)NCc2ccc(NC(=O)OCc3ccc(Cl)cc3)cc2)cn1` [Compound 234, (4-chlorophenyl)methyl N-(4-{[(6-isopropylpyridin-3-yl)formamido]methyl}phenyl)carbamate], the “AC1.4 Human” value turned out to be 2.19 µM and the concentration for a half-maximal effect (EC50) is 3.38 µM.
